The target in assay [1] is T1, JAK3 (Homo sapiens, UniProt P52333).
T1 construct: endogenous in cells; host or cells: Molt4 (ATCC CRL-1582) and Ramos (ATCC CRL-1596) cell lysate; mixed Molt4/Ramos lysate 1:2
T1 sequence (P52333 1-1124): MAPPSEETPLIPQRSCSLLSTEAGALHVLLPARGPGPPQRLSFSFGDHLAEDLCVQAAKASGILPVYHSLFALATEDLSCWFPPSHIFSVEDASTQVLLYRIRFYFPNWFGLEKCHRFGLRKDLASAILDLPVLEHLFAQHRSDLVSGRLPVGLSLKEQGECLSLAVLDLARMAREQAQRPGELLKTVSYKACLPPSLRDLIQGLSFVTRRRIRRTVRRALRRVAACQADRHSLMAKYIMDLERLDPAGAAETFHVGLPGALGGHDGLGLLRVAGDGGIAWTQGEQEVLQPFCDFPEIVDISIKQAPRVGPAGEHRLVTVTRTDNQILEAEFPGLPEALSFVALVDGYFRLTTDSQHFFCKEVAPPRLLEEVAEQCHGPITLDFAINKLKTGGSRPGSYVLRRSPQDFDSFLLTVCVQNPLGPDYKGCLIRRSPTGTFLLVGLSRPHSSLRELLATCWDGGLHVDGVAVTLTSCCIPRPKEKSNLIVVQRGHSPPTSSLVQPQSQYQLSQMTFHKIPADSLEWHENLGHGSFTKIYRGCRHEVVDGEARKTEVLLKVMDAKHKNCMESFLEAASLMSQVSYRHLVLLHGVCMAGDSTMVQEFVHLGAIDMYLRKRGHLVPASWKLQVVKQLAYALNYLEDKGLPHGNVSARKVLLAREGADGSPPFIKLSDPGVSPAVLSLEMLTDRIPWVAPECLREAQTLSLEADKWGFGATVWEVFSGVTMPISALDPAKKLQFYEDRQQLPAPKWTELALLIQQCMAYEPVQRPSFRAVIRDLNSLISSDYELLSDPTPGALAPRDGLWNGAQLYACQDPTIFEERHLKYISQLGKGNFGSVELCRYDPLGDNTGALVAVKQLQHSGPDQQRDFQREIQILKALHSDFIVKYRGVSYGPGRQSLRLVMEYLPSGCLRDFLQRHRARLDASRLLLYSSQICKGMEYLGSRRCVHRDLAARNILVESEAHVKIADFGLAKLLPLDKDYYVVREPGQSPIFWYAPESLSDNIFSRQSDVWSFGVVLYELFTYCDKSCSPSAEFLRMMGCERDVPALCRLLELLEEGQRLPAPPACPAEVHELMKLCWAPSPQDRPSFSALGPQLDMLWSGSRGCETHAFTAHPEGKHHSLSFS
As to the kind of experiment: Kinobeads assay, JAK3 (competition binding in cell lysate, dot blot detection). The conditions noted are these: mixed Molt4/Ramos lysate. On the procedure:
(§1) The compounds of the present invention as described in the previous examples were tested in a Kinobeads™ assay as described for ZAP-70 (WO-A 2007/137867). Briefly, test compounds (at various concentrations) and the affinity matrix with the immobilized aminopyrido-pyrimidine ligand 24 were added to cell lysate aliquots and allowed to bind to the proteins in the lysate sample. After the incubation time the beads with captured proteins were separated from the lysate. Bound proteins were then eluted and the presence of JAK2 and JAK3 was detected and quantified using specific antibodies in a dot blot procedure and the Odyssey infrared detection system. Dose response curves for individual kinases were generated and IC50 values calculated. Kinobeads™ assays for ZAP-70 (WO-A 2007/137867) and for kinase selectivity profiling (WO-A 2006/134056) have been previously described.
(§2) 5×DP buffer: 250 mM Tris-HCl pH 7.4, 25% Glycerol, 7.5 mM MgCl2, 750 mM NaCl, 5 mM Na3VO4; filter the 5×DP buffer through a 0.22 μm filter and store in aliquots at −80° C. The 5×DP buffer is diluted with H2O to 1×DP buffer containing 1 mM DTT and 25 mM NaF.
(§3) Stock solutions of test compounds were prepared in DMSO. In a 96 well plate 30 μL solution of diluted test compounds at 5 mM in DMSO were prepared. Starting with this solution a 1:3 dilution series (9 steps) was prepared. For control experiments (no test compound) a buffer containing 2% DMSO was used.
(§4) Molt4 cells (ATCC catalogue number CRL-1582) and Ramos cells (ATCC catalogue number CRL-1596) were grown in 1 L Spinner flasks (Integra Biosciences, #182101) in suspension in RPMI 1640 medium (Invitrogen, #21875-034) supplemented with 10% Fetal Bovine Serum (Invitrogen) at a density between 0.15×10^6 and 1.2×10^6 cells/mL. Cells were harvested by centrifugation, washed once with 1×PBS buffer (Invitrogen, #14190-094) and cell pellets were frozen in liquid nitrogen and subsequently stored at −80° C. Cells were homogenized in a Potter S homogenizer in lysis buffer: 50 mM Tris-HCl, 0.8% NP40, 5% glycerol, 150 mM NaCl, 1.5 mM MgCl2, 25 mM NaF, 1 mM sodium vanadate, 1 mM DTT, pH 7.5. One complete EDTA-free tablet (protease inhibitor cocktail, Roche Diagnostics, 1873580) per 25 mL buffer was added. The material was dounced 10 times using a mechanized POTTER S, transferred to 50 mL falcon tubes, incubated for 30 minutes on ice and spun down for 10 minutes at 20,000 g at 4° C. (10,000 rpm in Sorvall SLA600, precooled). The supernatant was transferred to an ultracentrifuge (UZ)-polycarbonate tube (Beckmann, 355654) and spun for 1 hour at 100.000 g at 4° C. (33.500 rpm in Ti50.2, precooled). The supernatant was transferred again to a fresh 50 mL falcon tube, the protein concentration was determined by a Bradford assay (BioRad) and samples containing 50 mg of protein per aliquot were prepared. The samples were immediately used for experiments or frozen in liquid nitrogen and stored frozen at −80° C.
(§5) Cell lysate (approximately 50 mg protein per plate) was thawed in a water bath at room temperature and then stored on ice. To the thawed cell lysate 1×DP 0.8% NP40 buffer containing protease inhibitors (1 tablet for 25 mL buffer; EDTA-free protease inhibitor cocktail; Roche Diagnostics 1873580) was added in order to reach a final protein concentration of 10 mg/mL total protein. The diluted cell lysate was stored on ice. Mixed Molt4/Ramos lysate was prepared by combining one volume of Molt4 lysate and two volumes of Ramos lysate (ratio 1:2).
(§6) Plates were sealed and incubated for 3 hours in a cold room on a plate shaker (Heidolph tiramax 1000) at 750 rpm. Afterwards the plate was washed 3 times with 230 μL washing buffer (1×DP 0.4% NP40). The filter plate was placed on top of a collection plate (Greiner bio-one, PP-microplate 96 well V-shape, 65120) and the beads were then eluted with 20 μL of sample buffer (100 mM Tris, pH 7.4, 4% SDS, 0.00025% bromophenol blue, 20% glycerol, 50 mM DTT). […]

The target in assay [2] is T2, JAK2 (Homo sapiens, UniProt O60674).
T2 construct: endogenous in cells; host or cells: Molt4 (ATCC CRL-1582) and Ramos (ATCC CRL-1596) cell lysate; mixed Molt4/Ramos lysate 1:2
T2 sequence (O60674 whole entry): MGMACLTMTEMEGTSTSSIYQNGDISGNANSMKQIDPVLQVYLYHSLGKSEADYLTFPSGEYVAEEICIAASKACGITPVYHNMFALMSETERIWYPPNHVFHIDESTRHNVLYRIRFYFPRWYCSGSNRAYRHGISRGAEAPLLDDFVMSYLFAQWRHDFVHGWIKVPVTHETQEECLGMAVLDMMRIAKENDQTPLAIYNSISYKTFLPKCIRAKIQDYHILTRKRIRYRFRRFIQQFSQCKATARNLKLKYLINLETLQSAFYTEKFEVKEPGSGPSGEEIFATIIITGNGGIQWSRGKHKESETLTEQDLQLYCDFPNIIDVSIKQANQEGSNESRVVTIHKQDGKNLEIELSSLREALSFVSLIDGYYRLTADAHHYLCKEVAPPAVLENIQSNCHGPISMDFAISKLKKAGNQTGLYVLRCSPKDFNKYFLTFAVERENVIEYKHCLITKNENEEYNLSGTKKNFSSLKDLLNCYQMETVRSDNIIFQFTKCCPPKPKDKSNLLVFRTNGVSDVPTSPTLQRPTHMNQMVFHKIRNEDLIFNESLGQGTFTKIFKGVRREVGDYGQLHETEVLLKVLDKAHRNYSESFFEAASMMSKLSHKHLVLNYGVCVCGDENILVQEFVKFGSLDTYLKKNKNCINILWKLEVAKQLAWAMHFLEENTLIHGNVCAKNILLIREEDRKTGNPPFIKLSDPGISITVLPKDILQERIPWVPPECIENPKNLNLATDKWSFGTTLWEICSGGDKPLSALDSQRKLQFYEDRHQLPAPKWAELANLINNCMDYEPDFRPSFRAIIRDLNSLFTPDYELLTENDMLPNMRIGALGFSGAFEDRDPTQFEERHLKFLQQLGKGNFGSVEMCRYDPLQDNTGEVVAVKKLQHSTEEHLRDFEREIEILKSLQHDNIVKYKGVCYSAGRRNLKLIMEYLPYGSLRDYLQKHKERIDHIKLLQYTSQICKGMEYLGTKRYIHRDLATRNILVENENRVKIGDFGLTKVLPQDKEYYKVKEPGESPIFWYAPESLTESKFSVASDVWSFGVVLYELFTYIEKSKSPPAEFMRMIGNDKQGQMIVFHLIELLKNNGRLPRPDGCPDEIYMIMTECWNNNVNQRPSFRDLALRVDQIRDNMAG
Kind of assay: Kinobeads assay, JAK2 (competition binding in cell lysate, dot blot detection). The conditions noted are these: mixed Molt4/Ramos lysate. Here is the method:
as §1, §2, §3, §4, §5, §6

Bounds are passed on as bounds.

On to `Cn1cc(Nc2ncc3cnn(C4CCCNC4)c3n2)cn1` (centres unmarked) [Example 10, N-(1-methyl-1H-pyrazol-4-yl)-1-(piperidin-3-yl)-1H-pyrazolo[3,4-d]pyrimidin-6-amine], for which the concentration for half-maximal inhibition (IC50) in assay [1] was 1 to 10 µM; in assay [2], more than 10 µM.

For `Cn1cc(Nc2ncc3cnn(C4CCNCC4)c3n2)cn1` [Example 12, N-(1-methyl-1H-pyrazol-4-yl)-1-(piperidin-4-yl)-1H-pyrazolo[3,4-d]pyrimidin-6-amine], the half-maximal inhibitory concentration (IC50) in assay [1] is 1 to 10 µM; in assay [2] it was more than 10 µM.

`CC1CCCC(n2ncc3cnc(Nc4cnn(C)c4)nc32)C1` (centres unmarked) [Example 13, N-(1-methyl-1H-pyrazol-4-yl)-1-(3-methylcyclohexyl)-1H-pyrazolo[3,4-d]pyrimidin-6-amine]: the IC50 in assay [1] was 0.1 to 1 µM; in assay [2] it was more than 10 µM.

Turning to `CC1CCCC1n1ncc2cnc(Nc3cnn(C)c3)nc21` (centres unmarked) [Example 14, N-(1-Methyl-1H-pyrazol-4-yl)-1-(2-methylcyclopentyl)-1H-pyrazolo[3,4-d]pyrimidin-6-amine], the IC50 in assay [1] was 0.1 to 1 µM; in assay [2], more than 10 µM.

For the compound `Cn1cc(Nc2ncc3cnn(CC4CCCCC4)c3n2)cn1` [Example 16, 1-(Cyclohexylmethyl)-N-(1-methyl-M-pyrazol-4-yl)-1H-pyrazolo[3,4-d]pyrimidin-6-amine], the IC50 was less than 0.1 µM in assay [1] and 1 to 10 µM in assay [2].

As to `CC(C1CCCCC1)n1ncc2cnc(Nc3cnn(C)c3)nc21` (centres unmarked) [Example 17, 1-(1-Cyclohexylethyl)-N-(1-methyl-M-pyrazol-4-yl)-1H-pyrazolo[3,4-d]pyrimidin-6-amine], the results for the IC50 in assay [1] and in assay [2] were 0.1 to 1 µM and more than 10 µM, respectively.

Take `CCC(C1CCCCC1)n1ncc2cnc(Nc3cnn(C)c3)nc21` (centres unmarked) [Example 18, 1-(1-Cyclohexylpropyl)-N-(1-methyl-M-pyrazol-4-yl)-1H-pyrazolo[3,4-c]pyrimidin-6-amine]: the results for the concentration for half-maximal inhibition (IC50) in assay [1] and in assay [2] were 0.1 to 1 µM and more than 10 µM, respectively.

In the case of `Cn1cc(Nc2ncc3cnn(C4CCCCCC4)c3n2)cn1` [Example 20, 1-Cycloheptyl-N-(1-methyl-1H-pyrazol-4-yl)-1H-pyrazolo[3,4-d]pyrimidin-6-amine], the results for the IC50 in assay [1] and in assay [2] were less than 0.1 µM and 1 to 10 µM, respectively.

Regarding `COCC(=O)N1CCCC(Cn2ncc3cnc(Nc4cnn(C)c4)nc32)C1` (centres unmarked) [Example 21, 2-methoxy-1-(3-((6-((1-methyl-1H-pyrazol-4-yl)amino)-1H-pyrazolo[3,4-d]pyrimidin-1-yl)methyl)piperidin-1-yl)ethanone], the IC50 in assay [1] is less than 0.1 µM; in assay [2], more than 10 µM.

On to `CC(=O)NC1CCC(n2ncc3cnc(Nc4cnn(C)c4)nc32)CC1` (centres unmarked) [Example 22, N-(4-(6-((1-methyl-1H-pyrazol-4-yl)amino)-1H-pyrazolo[3,4-d]pyrimidin-1-yl)cyclohexyl)acetamide], for which the results for the IC50 in assay [1] and in assay [2] were 0.1 to 1 µM and 1 to 10 µM, respectively.

On to `Cn1cc(Nc2ncc3cnn(CC4CCCN(C(=O)CCS(C)(=O)=O)C4)c3n2)cn1` (centres unmarked) [Example 23, 1-(3-((6-((1-methyl-1H-pyrazol-4-yl)amino)-1H-pyrazolo[3,4-d]pyrimidin-1-yl)methyl)piperidin-1-yl)-3-(methylsulfonyl)propan-1-one], for which the concentration for half-maximal inhibition (IC50) in assay [1] was less than 0.1 µM; in assay [2] it was 1 to 10 µM.

With `Cn1cc(Nc2ncc3cnn(C4CCN(C(=O)CC#N)CC4)c3n2)cn1` [Example 24, 3-(4-(6-((1-methyl-1H-pyrazol-4-yl)amino)-1H-pyrazolo[3,4-d]pyrimidin-1-yl)piperidin-1-yl)-3-oxopropanenitrile], the IC50 was 0.1 to 1 µM in assay [1] and 1 to 10 µM in assay [2].

With `Cn1cc(Nc2ncc3cnn(C4CCCN(C(=O)CC#N)C4)c3n2)cn1` (centres unmarked) [Example 25, 3-(3-(6-((1-methyl-1H-pyrazol-4-yl)amino)-1H-pyrazolo[3,4-d]pyrimidin-1-yl)piperidin-1-yl)-3-oxopropanenitrile], the IC50 is 0.1 to 1 µM in assay [1] and more than 10 µM in assay [2].

For orientation: IC50 means the concentration at which inhibition is half-maximal. A lower IC50 goes with greater potency in that assay.

These data come from patent publication US20130131043A1, “PYRAZOLE COMPOUNDS AS JAK INHIBITORS” (priority 2010, published 2013).
